Reference: US4983328A, “N-(4-(3-aminopropyl)aminobutyl)-2-(ω-gua nidino-fatty-acid-amido(-2-substituted-ethanamide, salt thereof, and process for preparation thereof” (Bristol-Myers Company, priority 1981, dated 1991)
≈ marks a conversion by molar mass, not a printed value. Read-outs that look alike come from different tables or passages of the source.

Legend:
[1] = chemical stability: retention (%) after heating at 60° C. for 4 hours, by HPLC; type: physicochemical
Protocol: The chemical stability of the present compound was evaluated by determining the retention (%) after heating at 60° C. for 4 hours. In Table 5 are shown the test results together with those for spergualin as reference. The retention was determined by means of high performance liquid chromatography (HPLC). The column was packed with Nucleosil® 5C18. The solvent used for spergualin was a mixture (6:94) of acetonitrile -0.01M sodium pentanesulfonate +0.01M Na2 HPO4 (pH 3), while that for the compounds of this invention was a mixture of acetonitrile -0.005M sodium pentanesulfonate ±0.01M Na2 HPO4 (pH 3). The mixture ratio in the latter case was varied for each particular compound. For instance, a mixing ratio of 10:90 was used for Compound No. 9, while that of 7:93 for Compound No. 22.

[2] = tested on: mouse leukemia L-1210 cells; assay: growth inhibitory activity to cancer cells in vitro (L-1210, 48 hours); type: cell-based; conditions: for inhibition at 2.5 µg/mL: L1210, 2.5 mcg/ml; for inhibition at 5 µg/mL: L1210, 5 mcg/ml; for inhibition at 10 µg/mL: L1210, 10 mcg/ml; for inhibition at 20 µg/mL: L1210, 20 mcg/ml; for inhibition at 40 µg/mL: L1210, 40 mcg/ml; for IC50: L1210, L-1210 cells, read-out: 50% inhibitory concentration; for inhibition at 80 µg/mL: L1210, 80 mcg/ml
In short: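 L-1210 cells from DBA/2 mouse ascites, cultured at 5×10^4 cells per well in RPMI 1640 with 10% FCS and 5 μM 2-mercaptoethanol, 37° C, CO2, for 48 h with compound. Cell counts by Coulter Counter gave % inhibition (1−T/C)×100, and IC50 was derived across concentrations.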

[3] = tested on: mouse leukemia L-1210; assay: therapeutic effect on implanted cancer in mice (L-1210, survival over 30 days); type: in vivo, mouse (BDF1); conditions: L1210, ip, 720 h, 6 days; for responders at 6.25 mg/kg / response vs control in vivo at 6.25 mg/kg: 6.25 mg/kg/day i.p.; for responders at 12.5 mg/kg / response vs control in vivo at 12.5 mg/kg: 12.5 mg/kg/day i.p.; for responders at 25 mg/kg / response vs control in vivo at 25 mg/kg: 25 mg/kg/day i.p.; for responders at 50 mg/kg / response vs control in vivo at 50 mg/kg: 50 mg/kg/day i.p.; for responders at 1.56 mg/kg / response vs control in vivo at 1.56 mg/kg: 1.56 mg/kg/day i.p.; for responders at 3.13 mg/kg / response vs control in vivo at 3.13 mg/kg: 3.13 mg/kg/day i.p.
In short: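 In vivo antileukemic activity was assessed using 5-week-old male BDF1 mice implanted i.p. with 10^5 L-1210 cells. Compound in physiological saline was given by daily intraperitoneal injection over 6 days beginning on the day of implantation; survival was monitored over a 30-day observation period, comparing treated with control groups.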

[4] = acute toxicity in mice (single intraperitoneal administration); conditions: mouse, in vivo, ip, read-out: LD50 (median lethal dose on single administration)
Protocol: In Table 8 median lethal doses (LD50) of typical compounds of this invention are shown, measured in mice upon single intraperitoneal administration, as well as maximum tolerated doses in terms of total dose when a fixed amount per unit body weight was administered intraperitoneally to mice once a day for 6 consecutive days.
*Median lethal dose on single administration.

[5] = cumulative toxicity in mice (maximum tolerated dose, once a day for 6 consecutive days); conditions: mouse, in vivo, ip, i.p. once a day for 6 consecutive days, total dose, read-out: Maximum Tolerated Dose (total dose not causing death)
In short: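 Mice dosed intraperitoneally once a day for 6 consecutive days with a fixed amount per unit body weight. The value is the maximum total dose not causing death.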

[6] = read-out: Growth inhibition (%), (1-T/C) × 100
[7] = read-out: Number of mice survived for 30 days (converted)
[8] = read-out: Prolongation of survival period (%), T/C × 100

N=C(N)NCCCC[C@H](O)CC(=O)NC(OCCO)C(=O)NCCCCNCCCN (stereo partly drawn) [Compound 25, N-[4-(3-aminopropyl)aminobutyl]-2-(7-guanidino-3-hydroxyheptanamido)-2-(2-hydroxy)ethoxyethanamide]
remaining at 4 h ([1]; pH 2, pH 2): 68.9%
remaining at 4 h ([1]; pH 4, pH 4): 100%
remaining at 4 h ([1]; pH 5, pH 5): 100%
remaining at 4 h ([1]; pH 6, pH 6): 100%
remaining at 4 h ([1]; pH 7, pH 7): 100%
remaining at 4 h ([1]; pH 8, pH 8): 100%
remaining at 4 h ([1]; pH 9, pH 9): 97.7%
remaining at 4 h ([1]; pH 10, pH 10): 95.5%
inhibition at 2.5 µg/mL [2, 6]: 9%
inhibition at 5 µg/mL [2, 6]: 20%
inhibition at 10 µg/mL [2, 6]: 42%
inhibition at 20 µg/mL [2, 6]: 63.5%
inhibition at 40 µg/mL [2, 6]: 74.7%
IC50 [2]: 7.2 µg/mL (≈ 16.1 µM)
responders at 6.25 mg/kg [3, 7]: 0%
response vs control in vivo at 6.25 mg/kg [3, 8]: 107%
responders at 12.5 mg/kg [3, 7]: 0%
response vs control in vivo at 12.5 mg/kg [3, 8]: 193%
responders at 25 mg/kg [3, 7]: 0%
response vs control in vivo at 25 mg/kg [3, 8]: 229%
responders at 50 mg/kg [3, 7]: 100%
response vs control in vivo at 50 mg/kg [3, 8]: > 429%
LD50 [4]: > 50 mg/kg
MTD [5]: > 300 mg/kg

CCCCOC(NC(=O)C[C@@H](O)CCCCNC(=N)N)C(=O)NCCCCNCCCN (stereo partly drawn) [Compound 24, N-[4-(3-aminopropyl)aminobutyl]-2-(7-guanidino-3-hydroxyheptanamido)-2-butoxyethanamide]
remaining at 4 h ([1]; pH 2, pH 2): 76.3%
remaining at 4 h ([1]; pH 4, pH 4): 100%
remaining at 4 h ([1]; pH 5, pH 5): 100%
remaining at 4 h ([1]; pH 6, pH 6): 100%
remaining at 4 h ([1]; pH 7, pH 7): 100%
remaining at 4 h ([1]; pH 8, pH 8): 100%
remaining at 4 h ([1]; pH 9, pH 9): 97.1%
remaining at 4 h ([1]; pH 10, pH 10): 94.8%
inhibition at 2.5 µg/mL [2, 6]: 47.3%
inhibition at 5 µg/mL [2, 6]: 75.6%
inhibition at 10 µg/mL [2, 6]: 89.5%
inhibition at 20 µg/mL [2, 6]: 95%
inhibition at 40 µg/mL [2, 6]: 97.2%
IC50 [2]: 2.6 µg/mL (≈ 5.66 µM)
LD50 ([4]; mice, single i.p.): > 50 mg/kg
MTD [5]: > 300 mg/kg

N=C(N)NCCCCCCC(=O)NC(OCc1ccccc1)C(=O)NCCCCNCCCN (stereo not drawn) [Compound 15, N-[4-(3-aminopropyl)aminobutyl]-2-(7-guanidinoheptanamido)-2-benzyloxyethanamide]
remaining at 4 h ([1]; pH 2, pH 2): 76.5%
remaining at 4 h ([1]; pH 3, pH 3): 91.4%
remaining at 4 h ([1]; pH 4, pH 4): 100%
remaining at 4 h ([1]; pH 6, pH 6): 100%
remaining at 4 h ([1]; pH 8, pH 8): 100%
remaining at 4 h ([1]; pH 9, pH 9): 99%
remaining at 4 h ([1]; pH 10, pH 10): 96.2%
inhibition at 1.25 µg/mL ([2]; L1210, 1.25 mcg/ml, read-out: Growth inhibition (%), (1-T/C) × 100): 27.1%
inhibition at 2.5 µg/mL [2, 6]: 39%
inhibition at 5 µg/mL [2, 6]: 71%
inhibition at 10 µg/mL [2, 6]: 94.5%
inhibition at 20 µg/mL [2, 6]: 97.7%
inhibition at 40 µg/mL [2, 6]: 100%
IC50 [2]: 3.1 µg/mL (≈ 6.49 µM)
LD50 ([4]; mice, single i.p.): 12.5 to 25 mg/kg
MTD [5]: > 75 mg/kg

N=C(N)NCCCC[C@H](O)CC(=O)NC(OCc1ccccc1)C(=O)NCCCCNCCCN (stereo partly drawn) [Compound 26, N-[4-(3-aminopropyl)aminobutyl]-2-(7-guanidino-3-hydroxyheptanamido)-2-benzyloxyethanamide]
remaining at 4 h ([1]; pH 2, pH 2): 77.2%
remaining at 4 h ([1]; pH 4, pH 4): 100%
remaining at 4 h ([1]; pH 5, pH 5): 100%
remaining at 4 h ([1]; pH 6, pH 6): 100%
remaining at 4 h ([1]; pH 7, pH 7): 100%
remaining at 4 h ([1]; pH 8, pH 8): 100%
remaining at 4 h ([1]; pH 9, pH 9): 95.9%
remaining at 4 h ([1]; pH 10, pH 10): 94.5%
inhibition at 2.5 µg/mL [2, 6]: 54.2%
inhibition at 5 µg/mL [2, 6]: 79%
inhibition at 10 µg/mL [2, 6]: 90.2%
inhibition at 20 µg/mL [2, 6]: 96.6%
inhibition at 40 µg/mL [2, 6]: 97.3%
IC50 [2]: 2.2 µg/mL (≈ 4.46 µM)
LD50 [4]: 12.5 to 25 mg/kg
MTD [5]: > 75 mg/kg

N=C(N)NCCCCCCC(=O)NC(OCCO)C(=O)NCCCCNCCCN (stereo not drawn) [Compound 14, N-[4-(3-aminopropyl)aminobutyl]-2-(7-guanidinoheptanamido)-2-(2-hydroxy)ethoxyethanamide]
remaining at 4 h ([1]; pH 2, pH 2): 71.8%
remaining at 4 h ([1]; pH 3, pH 3): 90.6%
remaining at 4 h ([1]; pH 4, pH 4): 100%
remaining at 4 h ([1]; pH 6, pH 6): 100%
remaining at 4 h ([1]; pH 8, pH 8): 100%
remaining at 4 h ([1]; pH 9, pH 9): 97.5%
remaining at 4 h ([1]; pH 10, pH 10): 97.3%
inhibition at 5 µg/mL [2, 6]: 22.3%
inhibition at 10 µg/mL [2, 6]: 24.6%
inhibition at 20 µg/mL [2, 6]: 29.9%
inhibition at 40 µg/mL [2, 6]: 42.7%
inhibition at 80 µg/mL [2, 6]: 58.6%
IC50 [2]: 52 µg/mL (≈ 120 µM)
LD50 ([4]; mice, single i.p.): 25 to 50 mg/kg
MTD [5]: > 150 mg/kg

N=C(N)NCCCCC=CC(=O)NC(O)C(=O)NCCCCNCCCN (stereo not drawn) [Compound 16, N-[4-(3-aminopropyl)aminobutyl]-2-(7-guanidino-2-heptenamido)-2-hydroxyethanamide]
inhibition at 2.5 µg/mL [2, 6]: 22.6%
inhibition at 5 µg/mL [2, 6]: 31.1%
inhibition at 10 µg/mL [2, 6]: 32.5%
inhibition at 20 µg/mL [2, 6]: 56.3%
IC50 [2]: 17 µg/mL (≈ 44.1 µM)
responders at 0.78 mg/kg ([3]; 0.78 mg/kg/day i.p., read-out: Number of mice survived for 30 days (converted)): 0%
response vs control in vivo at 0.78 mg/kg ([3]; 0.78 mg/kg/day i.p., read-out: Prolongation of survival period (%), T/C × 100): 129%
responders at 1.56 mg/kg [3, 7]: 0%
response vs control in vivo at 1.56 mg/kg [3, 8]: 233%
responders at 3.13 mg/kg [3, 7]: 50%
response vs control in vivo at 3.13 mg/kg [3, 8]: > 343%
responders at 6.25 mg/kg [3, 7]: 50%
response vs control in vivo at 6.25 mg/kg [3, 8]: > 350%
responders at 12.5 mg/kg [3, 7]: 50%
response vs control in vivo at 12.5 mg/kg [3, 8]: > 354%
responders at 25 mg/kg [3, 7]: 0%
response vs control in vivo at 25 mg/kg [3, 8]: 236%
responders at 50 mg/kg [3, 7]: 0%
response vs control in vivo at 50 mg/kg [3, 8]: 0%
LD50 ([4]; mice, single i.p.): 25 to 50 mg/kg
MTD [5]: > 150 mg/kg

COC(NC(=O)CCCCCCCNC(=N)N)C(=O)NCCCCNCCCN (stereo not drawn) [Compound 10, N-[4-(3-aminopropyl)aminobutyl]-2-(8-guanidinooctanamido)-2-methoxyethanamide]
inhibition at 5 µg/mL [2, 6]: 19.9%
inhibition at 10 µg/mL [2, 6]: 28.5%
inhibition at 20 µg/mL [2, 6]: 36.5%
inhibition at 40 µg/mL [2, 6]: 52.4%
inhibition at 80 µg/mL [2, 6]: 62.4%
inhibition at 160 µg/mL ([2]; L1210, 160 mcg/ml, read-out: Growth inhibition (%), (1-T/C) × 100): 79.5%
IC50 [2]: 39 µg/mL (≈ 93.8 µM)
responders at 1.56 mg/kg [3, 7]: 0%
response vs control in vivo at 1.56 mg/kg [3, 8]: 100%
responders at 3.13 mg/kg [3, 7]: 0%
response vs control in vivo at 3.13 mg/kg [3, 8]: 100%
responders at 6.25 mg/kg [3, 7]: 0%
response vs control in vivo at 6.25 mg/kg [3, 8]: 107%
responders at 12.5 mg/kg [3, 7]: 0%
response vs control in vivo at 12.5 mg/kg [3, 8]: 129%
responders at 25 mg/kg [3, 7]: 0%
response vs control in vivo at 25 mg/kg [3, 8]: 0%
responders at 50 mg/kg [3, 7]: 0%
response vs control in vivo at 50 mg/kg [3, 8]: 0%
LD50 ([4]; mice, single i.p.): 12.5 to 25 mg/kg
MTD [5]: > 75 mg/kg
